Measurements published in ChEMBL document CHEMBL1201862, “PubChem BioAssay data set” (2004).
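Method: 48-hour compound exposure of cells in 96-well plates, five concentrations, linear interpolation of endpoints. GI50 marks 50% less growth.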 The source made the active and inactive calls. Cut-off read from the data, not from the text of the source: active = GI50 up to about 1.1 µM and inactive = higher.

Columns and labels:
Test in all cases: DTP human tumour cell line panel, 48 h
A498 = tested on: A498
A549 = tested on: A549
CAKI-1 = tested on: CAKI-1
CCRF-CEM = tested on: CCRF-CEM
COLO 205 = tested on: COLO 205
DLD-1 = tested on: DLD-1
DMS-114 = tested on: DMS-114
DMS-273 = tested on: DMS-273
EKVX = tested on: EKVX
HCC 2998 = tested on: HCC 2998
HCT-116 = tested on: HCT-116
HCT-15 = tested on: HCT-15
HL-60 = tested on: HL-60
HOP-18 = tested on: HOP-18
HOP-62 = tested on: HOP-62
HOP-92 = tested on: HOP-92
HT-29 = tested on: HT-29
IGROV-1 = tested on: IGROV-1
K562 = tested on: K562
KM-20L2 = tested on: KM-20L2
KM12 = tested on: KM12
LOX IMVI = tested on: LOX IMVI
M19-MEL = tested on: M19-MEL
MCF7 = tested on: MCF7
MOLT-4 = tested on: MOLT-4
Malme-3M = tested on: Malme-3M
NCI-H226 = tested on: NCI-H226
NCI-H23 = tested on: NCI-H23
NCI-H460 = tested on: NCI-H460
NCI-H522 = tested on: NCI-H522
NCI/ADR-RES = tested on: NCI/ADR-RES
OVCAR-3 = tested on: OVCAR-3
OVCAR-4 = tested on: OVCAR-4
OVCAR-5 = tested on: OVCAR-5
OVCAR-8 = tested on: OVCAR-8
RPMI-8226 = tested on: RPMI-8226
RXF 393 = tested on: RXF 393
SF-268 = tested on: SF-268
SF-295 = tested on: SF-295
SF-539 = tested on: SF-539
SK-MEL-28 = tested on: SK-MEL-28
SK-MEL-2 = tested on: SK-MEL-2
SK-MEL-5 = tested on: SK-MEL-5
SK-OV-3 = tested on: SK-OV-3
SN12C = tested on: SN12C
SNB-19 = tested on: SNB-19
SNB-75 = tested on: SNB-75
SNB-78 = tested on: SNB-78
SW-620 = tested on: SW-620
U-251 = tested on: U-251
UACC-257 = tested on: UACC-257
UACC-62 = tested on: UACC-62
UO-31 = tested on: UO-31
XF498 = tested on: XF498
786-0 = tested on: 786-0
ACHN = tested on: ACHN
LXFL 529 = tested on: LXFL 529
M14 = tested on: M14
TK-10 = tested on: TK-10

In the case of Oc1c(CNCCCN2CCCC2)cc(Cl)c2cccnc12, the GI50 (A498) is reported as 15 µM (inactive), the GI50 (A549) is reported as 3.14 µM (inactive) and the GI50 (CAKI-1) is reported as 3.03 µM (inactive). The GI50 (CCRF-CEM) was 2.34 µM (inactive), the GI50 (COLO 205) was 3.79 µM (inactive) and the GI50 (DLD-1) was 3.22 µM (inactive). For the same molecule, the GI50 (DMS-114) was 3.05 µM (inactive), the GI50 (DMS-273) was 2.83 µM (inactive) and the GI50 (EKVX) was 1.75 µM (inactive). For the same molecule, the GI50 (HCC 2998) was 3.1 µM (inactive), the GI50 (HCT-116) was 2.61 µM (inactive) and the GI50 (HCT-15) was 2.09 µM. For the same molecule, the GI50 (HL-60) was 0.364 µM (active), the GI50 (HOP-18) was 4.95 µM (inactive) and the GI50 (HOP-62) was 2.66 µM (inactive). The GI50 (HOP-92) was 7 µM (inactive), the GI50 (HT-29) was 5.3 µM (inactive) and the GI50 (IGROV-1) was 6.85 µM (inactive). For the same molecule, the GI50 (K562) was 2.37 µM (inactive), the GI50 (KM-20L2) was 3.78 µM (inactive) and the GI50 (KM12) was 4.05 µM (inactive). For the same molecule, the GI50 (LOX IMVI) was 3.01 µM (inactive), the GI50 (M19-MEL) was 2.52 µM (inactive) and the GI50 (MCF7) was 4.56 µM (inactive). For the same molecule, the GI50 (MOLT-4) was 2.77 µM (inactive), the GI50 (Malme-3M) was 5.55 µM (inactive) and the GI50 (NCI-H226) was 3.15 µM (inactive). For the same molecule, the GI50 (NCI-H23) was 11 µM (inactive), the GI50 (NCI-H460) was 2.88 µM (inactive) and the GI50 (NCI-H522) was 4.22 µM (inactive). For the same molecule, the GI50 (NCI/ADR-RES) was 1.48 µM (inactive), the GI50 (OVCAR-3) was 2.14 µM (inactive) and the GI50 (OVCAR-4) was 3.92 µM (inactive). For the same molecule, the GI50 (OVCAR-5) was 2.52 µM (inactive), the GI50 (OVCAR-8) was 3.24 µM (inactive) and the GI50 (RPMI-8226) was 2.38 µM (inactive). For the same molecule, the GI50 (RXF 393) was 11.5 µM (inactive), the GI50 (SF-268) was 3.27 µM (inactive) and the GI50 (SF-295) was 2.19 µM (inactive). For the same molecule, the GI50 (SF-539) was 2.87 µM (inactive), the GI50 (SK-MEL-28) was 11.2 µM (inactive) and the GI50 (SK-MEL-2) was 11.1 µM (inactive). For the same molecule, the GI50 (SK-MEL-5) was 1.36 µM (inactive), the GI50 (SK-OV-3) was 4.13 µM (inactive) and the GI50 (SN12C) was 5.64 µM (inactive). The GI50 (SNB-19) was 6.46 µM (inactive), the GI50 (SNB-75) was 13 µM (inactive) and the GI50 (SNB-78) was 14.2 µM (inactive). For the same molecule, the GI50 (SW-620) was 4.01 µM (inactive), the GI50 (U-251) was 4.09 µM (inactive) and the GI50 (UACC-257) was 11.4 µM (inactive). For the same molecule, the GI50 (UACC-62) was 2.21 µM (inactive), the GI50 (UO-31) was 3.76 µM (inactive) and the GI50 (XF498) was 2.56 µM (inactive).
CC(C)(CN1CCCCC1)C(=O)CC(SCCS(=O)(=O)O)c1ccc(Br)cc1 (stereo not given) was tested, and the GI50 (786-0) was 1.26 µM (inactive), the GI50 (A498) was 2.1 µM (inactive) and the GI50 (A549) was 1.98 µM (inactive). For the same molecule, the GI50 (ACHN) was 1.67 µM (inactive), the GI50 (CAKI-1) was 2.4 µM (inactive) and the GI50 (COLO 205) was 1.45 µM (inactive). For the same molecule, the GI50 (DLD-1) was 1.67 µM (inactive), the GI50 (DMS-114) was 1.75 µM (inactive) and the GI50 (DMS-273) was 1.65 µM (inactive). For the same molecule, the GI50 (EKVX) was 2.92 µM (inactive), the GI50 (HCC 2998) was 2.7 µM (inactive) and the GI50 (HCT-116) was 1.67 µM (inactive). The GI50 (HCT-15) was 2.82 µM, the GI50 (HOP-18) was 0.832 µM (active) and the GI50 (HOP-62) was 6.18 µM (inactive). The GI50 (HOP-92) was 0.578 µM (active), the GI50 (HT-29) was 1.75 µM (inactive) and the GI50 (IGROV-1) was 1.97 µM (inactive). For the same molecule, the GI50 (K562) was 1.21 µM (inactive), the GI50 (KM-20L2) was 1.58 µM (inactive) and the GI50 (KM12) was 2 µM (inactive). For the same molecule, the GI50 (LXFL 529) was 1.24 µM (inactive), the GI50 (M14) was 1.59 µM (inactive) and the GI50 (M19-MEL) was 1.66 µM (inactive). For the same molecule, the GI50 (MOLT-4) was 2.23 µM (inactive), the GI50 (Malme-3M) was 1.39 µM (inactive) and the GI50 (NCI-H226) was 3.26 µM (inactive). The GI50 (NCI-H23) was 2.34 µM (inactive), the GI50 (NCI-H460) was 2.14 µM (inactive) and the GI50 (NCI-H522) was 1.15 µM (inactive). The GI50 (OVCAR-4) was 2.03 µM (inactive), the GI50 (OVCAR-5) was 2.8 µM (inactive) and the GI50 (OVCAR-8) was 2.38 µM (inactive). For the same molecule, the GI50 (RPMI-8226) was 1.94 µM (inactive), the GI50 (RXF 393) was 1.41 µM (inactive) and the GI50 (SF-268) was 2.61 µM (inactive). The GI50 (SF-295) was 5.12 µM (inactive), the GI50 (SF-539) was 1.6 µM (inactive) and the GI50 (SK-MEL-28) was 3.27 µM (inactive). The GI50 (SK-MEL-2) was 2.32 µM (inactive), the GI50 (SK-MEL-5) was 1.8 µM (inactive) and the GI50 (SK-OV-3) was 2.93 µM (inactive). For the same molecule, the GI50 (SN12C) was 1.34 µM (inactive), the GI50 (SNB-19) was 2.34 µM (inactive) and the GI50 (SNB-75) was 2.07 µM (inactive). For the same molecule, the GI50 (SNB-78) was 4.46 µM (inactive), the GI50 (TK-10) was 2.56 µM (inactive) and the GI50 (U-251) was 1.56 µM (inactive). The GI50 (UACC-257) was 3.17 µM (inactive), the GI50 (UACC-62) was 1.84 µM (inactive) and the GI50 (UO-31) was 1.47 µM (inactive). The GI50 (XF498) was 0.562 µM (active).
In the case of COc1ccc2c3c1O[C@]1(C)C34CCN(C)C(C2)C42C=C[C@@]1(OC)c1c(O)ccc(O)c12, the GI50 (786-0) is reported as 95.7 µM (inactive), the GI50 (A498) is reported as > 100 µM (inactive) and the GI50 (A549) is reported as > 100 µM (inactive). For the same molecule, the GI50 (ACHN) was > 100 µM (inactive), the GI50 (CCRF-CEM) was > 100 µM (inactive) and the GI50 (COLO 205) was > 100 µM (inactive). For the same molecule, the GI50 (DLD-1) was > 100 µM (inactive), the GI50 (DMS-114) was > 100 µM (inactive) and the GI50 (DMS-273) was > 100 µM (inactive). The GI50 (EKVX) was > 100 µM (inactive), the GI50 (HCC 2998) was > 100 µM (inactive) and the GI50 (HCT-116) was > 100 µM (inactive). For the same molecule, the GI50 (HL-60) was 17.8 µM (inactive), the GI50 (HOP-18) was > 100 µM (inactive) and the GI50 (HOP-62) was > 100 µM (inactive). For the same molecule, the GI50 (HOP-92) was 59.3 µM (inactive), the GI50 (HT-29) was > 100 µM (inactive) and the GI50 (IGROV-1) was > 100 µM (inactive). The GI50 (K562) was > 100 µM (inactive), the GI50 (KM-20L2) was > 100 µM (inactive) and the GI50 (KM12) was > 100 µM (inactive). For the same molecule, the GI50 (LOX IMVI) was > 100 µM (inactive), the GI50 (LXFL 529) was > 100 µM (inactive) and the GI50 (MOLT-4) was > 100 µM (inactive). For the same molecule, the GI50 (Malme-3M) was 64.7 µM (inactive), the GI50 (NCI-H23) was > 100 µM (inactive) and the GI50 (NCI-H460) was > 100 µM (inactive). For the same molecule, the GI50 (NCI-H522) was > 100 µM (inactive), the GI50 (OVCAR-3) was > 100 µM (inactive) and the GI50 (OVCAR-5) was > 100 µM (inactive). The GI50 (OVCAR-8) was > 100 µM (inactive), the GI50 (RPMI-8226) was > 100 µM (inactive) and the GI50 (RXF 393) was > 100 µM (inactive). For the same molecule, the GI50 (SF-268) was > 100 µM (inactive), the GI50 (SF-295) was > 100 µM (inactive) and the GI50 (SF-539) was > 100 µM (inactive). The GI50 (SK-MEL-28) was > 100 µM (inactive), the GI50 (SK-MEL-2) was > 100 µM (inactive) and the GI50 (SK-MEL-5) was > 100 µM (inactive). The GI50 (SK-OV-3) was > 100 µM (inactive), the GI50 (SNB-19) was > 100 µM (inactive) and the GI50 (SNB-75) was > 100 µM (inactive). The GI50 (SNB-78) was 61.8 µM (inactive), the GI50 (SW-620) was > 100 µM (inactive) and the GI50 (TK-10) was > 100 µM (inactive). The GI50 (U-251) was > 100 µM (inactive), the GI50 (UACC-257) was > 100 µM (inactive) and the GI50 (UO-31) was > 100 µM (inactive). The GI50 (XF498) was > 100 µM (inactive).
